Earlier results on 1 molecule are cited in patent US20020082283A1, “Nitrogen-containing compounds and their use as glycine transport inhibitors” (Gliatech, Inc., priority 2000, published 2002).

Structures are written as SMILES.

The data set relates to NMDA receptor. The settings on record: in vitro at concentrations at which clinical efficacy is seen.

`O=C(CCCN1CCC(O)(c2ccc(Cl)cc2)CC1)c1ccc(F)cc1` [haloperidol]: the “increase in NMDA receptor activity” value is roughly 40%.
